Measured values published in the supplement of paper PMC10307832.

Experiments:
Test in all cases: relative viability (nuclei count vs DMSO), 5 days (fraction); higher = more cells survive
Vorinostat + Trametinib = compound: O=C(CCCCCCC(=O)Nc1ccccc1)NO [Vorinostat] + CC(=O)Nc1cccc(-n2c(=O)n(C3CC3)c(=O)c3c(Nc4ccc(I)cc4F)n(C)c(=O)c(C)c32)c1 [Trametinib] (partner 0.02 µM)
Method in brief: (§1)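 Relative viability equals treated-well nuclei counts divided by vehicle-well nuclei counts. Counts came from 4× images of lung cancer cell lines grown in 1536-well plates for 5 days after pin-tool dosing on the day after seeding. Dosing used one drug alone or a fixed anchor-drug dose plus five library-drug doses (not always all listed) in √10 steps, and values are medians of duplicate plates.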

Vorinostat + Pictilisib = compound: O=C(CCCCCCC(=O)Nc1ccccc1)NO [Vorinostat] + CS(=O)(=O)N1CCN(Cc2cc3nc(-c4cccc5[nH]ncc45)nc(N4CCOCC4)c3s2)CC1 [Pictilisib] (partner 1 µM)
Method in brief: as §1

Vorinostat + Phenformin = compound: O=C(CCCCCCC(=O)Nc1ccccc1)NO [Vorinostat] + N=C(N)NC(=N)NCCc1ccccc1 [Phenformin] (partner 250 µM)
Method in brief: as §1

Vorinostat + AZD7762 = compound: O=C(CCCCCCC(=O)Nc1ccccc1)NO [Vorinostat] + NC(=O)Nc1cc(-c2cccc(F)c2)sc1C(=O)N[C@H]1CCCNC1 [AZD7762] (partner 0.2 µM)
Method in brief: as §1

Vorinostat + Pemetrexed = compound: O=C(CCCCCCC(=O)Nc1ccccc1)NO [Vorinostat] + Nc1nc2[nH]cc(CCc3ccc(C(=O)N[C@@H](CCC(=O)O)C(=O)O)cc3)c2c(=O)[nH]1 [Pemetrexed] (partner 0.2 µM)
Method in brief: as §1

Cell Line | relative viability (Vorinostat + Trametinib; first compound 0.253 µM) | relative viability (Vorinostat + Trametinib; first compound 0.8 µM) | relative viability (Vorinostat + Trametinib; first compound 2.53 µM) | relative viability (Vorinostat + Trametinib; first compound 8 µM) | relative viability (Vorinostat + Pictilisib; first compound 0.253 µM) | relative viability (Vorinostat + Pictilisib; first compound 0.8 µM) | relative viability (Vorinostat + Pictilisib; first compound 2.53 µM) | relative viability (Vorinostat + Pictilisib; first compound 8 µM) | relative viability (Vorinostat + Phenformin; first compound 0.253 µM) | relative viability (Vorinostat + Phenformin; first compound 0.8 µM) | relative viability (Vorinostat + Phenformin; first compound 2.53 µM) | relative viability (Vorinostat + Phenformin; first compound 8 µM) | relative viability (Vorinostat + AZD7762; first compound 0.253 µM) | relative viability (Vorinostat + AZD7762; first compound 0.8 µM) | relative viability (Vorinostat + AZD7762; first compound 2.53 µM) | relative viability (Vorinostat + AZD7762; first compound 8 µM) | relative viability (Vorinostat + Pemetrexed; first compound 0.253 µM) | relative viability (Vorinostat + Pemetrexed; first compound 0.8 µM) | relative viability (Vorinostat + Pemetrexed; first compound 2.53 µM) | relative viability (Vorinostat + Pemetrexed; first compound 8 µM)
EMC-BAC-2 | 0.836 | 0.687 | 0.292 | 0.154 | 0.596 | 0.531 | 0.372 | 0.129 | 0.523 | 0.473 | 0.248 | 0.163 | 1.02 | 0.653 | 0.447 | 0.174 | 0.377 | 0.368 | 0.26 | 0.208
SK-MES-1 | 0.728 | 0.71 | 0.454 | 0.239 | 0.469 | 0.349 | 0.231 | 0.0945 | 0.719 | 0.723 | 0.517 | 0.207 | – | – | – | – | 1.08 | 1.07 | 0.553 | 0.207
SW 1573 | 0.709 | 0.596 | 0.357 | 0.0536 | 0.543 | 0.45 | 0.24 | 0.0767 | 0.613 | 0.556 | 0.355 | 0.0821 | – | – | – | – | 1.2 | 1.05 | 0.346 | 0.0659
NCI-H1395 | 1.23 | 0.964 | 0.777 | 0.412 | 0.637 | 0.619 | 0.427 | 0.362 | 0.475 | 0.501 | 0.401 | 0.341 | 0.37 | 0.373 | 0.375 | 0.296 | 0.733 | 0.746 | 0.533 | 0.321
NCI-H2347 | 0.242 | 0.327 | 0.226 | 0.203 | 0.696 | 0.377 | 0.199 | 0.211 | 0.46 | 0.351 | 0.19 | 0.2 | 0.595 | 0.696 | 0.456 | 0.226 | 0.427 | 0.41 | 0.416 | 0.299
NCI-H650 | 1.24 | 0.839 | 0.243 | 0.111 | 0.902 | 0.491 | 0.183 | 0.16 | 0.483 | 0.375 | 0.256 | 0.14 | 0.606 | 0.737 | 0.235 | 0.165 | 0.953 | 0.918 | 0.287 | 0.11
NCI-H1975 | 0.395 | 0.311 | 0.123 | 0.106 | 0.321 | 0.242 | 0.0978 | 0.118 | 0.431 | 0.381 | 0.197 | 0.127 | 0.791 | 0.641 | 0.272 | 0.197 | 0.323 | 0.243 | 0.183 | 0.133
NCI-H3122 | 0.168 | 0.265 | 0.298 | 0.118 | 0.667 | 0.758 | 0.284 | 0.177 | 0.395 | 0.365 | 0.0662 | 0.118 | 1.17 | 1.06 | 0.246 | 0.0864 | 0.199 | 0.199 | 0.174 | 0.0738
LC-2-ad | 0.936 | 0.776 | 0.435 | 0.221 | 0.568 | 0.292 | 0.0981 | 0.0042 | 0.568 | 0.461 | 0.221 | 0.133 | 0.867 | 0.632 | 0.226 | 0.159 | 0.273 | 0.268 | 0.263 | 0.19
HCC-366 | 0.412 | 0.333 | 0.062 | 0.0267 | 0.132 | 0.191 | 0.0894 | 0.037 | 0.689 | 0.605 | 0.338 | 0.0385 | 0.459 | 0.195 | 0.0622 | 0.0231 | 0.169 | 0.174 | 0.0867 | 0.0396
NCI-H2023 | 0.65 | 0.422 | 0.184 | 0.07 | 0.221 | 0.214 | 0.128 | 0.0818 | 0.444 | 0.442 | 0.192 | 0.0722 | – | – | – | – | 0.233 | 0.182 | 0.103 | 0.067
PC-3 [JPC-3] | 0.695 | 0.644 | 0.405 | 0.348 | 0.779 | 0.582 | 0.423 | 0.309 | 0.471 | 0.465 | 0.436 | 0.279 | 0.834 | 0.526 | 0.306 | 0.271 | 1.1 | 0.866 | 0.285 | 0.281
NCI-H2342 | 0.703 | 0.774 | 0.685 | 0.484 | – | – | – | – | 0.561 | 0.653 | 0.573 | 0.375 | 0.431 | 0.575 | 0.347 | 0.254 | 0.834 | 0.832 | 0.68 | 0.306
LOU-NH91 | 0.883 | 0.857 | 0.754 | 0.455 | 0.556 | 0.472 | 0.417 | 0.32 | 0.774 | 0.663 | 0.628 | 0.348 | 0.757 | 0.739 | 0.548 | 0.414 | 0.362 | 0.324 | 0.387 | 0.351
LCLC-97TM1 | 0.238 | 0.207 | 0.142 | 0.074 | – | 0.151 | 0.168 | 0.0934 | 0.489 | 0.421 | 0.253 | 0.144 | 0.129 | 0.256 | 0.205 | 0.0628 | 0.155 | 0.149 | 0.146 | 0.0924
NCI-H2405 | 0.87 | 0.872 | 0.486 | 0.141 | 0.478 | 0.542 | 0.153 | 0.0468 | 0.495 | 0.404 | 0.279 | 0.0401 | 0.904 | 0.742 | 0.262 | 0.11 | 1.18 | 1.1 | 0.357 | 0.122
A549 | – | – | – | – | 0.601 | 0.4 | 0.0772 | 0.0417 | 0.17 | 0.168 | 0.0474 | 0.0242 | – | – | – | – | – | – | – | –
